Reference: patent publication US20060013852A1, “Use of organic compounds” (priority 2002, published 2006)

Experiments:
[1] = clinical study of aliskiren in dialysis patients after catheter insertion; assay type: in vivo, human; settings: aliskiren 100 mg daily for 3 months; observation 6 months
Experimental: One hundred fifty prospective dialysis patients, who undergo successful insertion of an indwelling, large bore catheter, into a vein are selected for study. […] These drugs are administered for 3 consecutive months following catheter insertion.

[2] = tested on: restenotic lesion formation; test: rabbit iliac stent model; assay type: in vivo, New Zealand White rabbit; settings: for angiogenic response post-stenting: orally and locally via coated stent, 7 and 28 days post-stenting, vs placebo
Experimental: A combined angioplasty and stenting procedure is performed in New Zealand White rabbit iliac arteries. Iliac artery balloon injury is performed by inflating a 3.0×9.0 mm angioplasty balloon in the mid-portion of the artery followed by “pull-back” of the catheter for 1 balloon length. Balloon injury is repeated 2 times, and a 3.0×12 mm stent is deployed at 6 atm for 30 seconds in the iliac artery. Balloon injury and stent placement is then performed on the contralateral iliac artery in the same manner. A post-stent deployment angiogram is performed. […] The vascular section between the distal aorta and the proximal femoral arteries is excised and cleaned of periadventitial tissue. The stented section of artery is embedded in plastic and sections are taken from the proximal, middle, and distal portions of each stent. […] The vessel area is measured as the area within the EEL. Data are expressed as mean±SEM. […] A P<0.05 is considered statistically significant.
(§1) 4. […] CYR61, an angiogenic factor, is induced by Angiotensin II (Ang II) in vascular cells and tissue. Likewise, Ang II induces an angiogenic reponse when Angil is delivered locally in mice or rats.

[3] = tested on: neointimal lesion formation; test: rat carotid artery balloon injury model; assay type: in vivo; settings: local delivery to adventitia via Alzet minipump; early (9 days) and late (21-28 days) post-ballooning
From the text: Rat carotid arteries are balloon injured using a method described by Clowes et al. Lab. Invest. 1983; 49; 208-215. […] A P<0.05 is considered statistically significant.

[4] = tested on: Ang II induced angiogenic response; test: angiogenic response to locally delivered Ang II; assay type: in vivo; settings: Ang II delivered locally in mice or rats
From the text: as §1

In the case of `COCCCOc1cc(C[C@@H](C[C@H](N)[C@@H](O)C[C@H](C(=O)NCC(C)(C)C(N)=O)C(C)C)C(C)C)ccc1OC` [aliskiren, 2(S),4(S),5(S),7(S)-N-(3-amino-2,2-dimethyl-3-oxopropyl)-2,7-di(1-methylethyl)-4-hydroxy-5-amino-8-[4-methoxy-3-(3-methoxy-propoxy)phenyl]-octanamide], the “prevention or reduction of vascular access dysfunction” value [1] is reported as “efficacy”, the angiogenic response post-stenting [2] is reported as “markedly inhibits” and the “inhibition of neointimal lesions” value [3] is reported as “potent inhibition”. The “inhibition of Ang II induced angiogenic response in vivo” value [4] was “potent inhibition”.
For `CCCCC(=O)N(Cc1ccc(-c2ccccc2-c2nnn[nH]2)cc1)[C@H](C(=O)O)C(C)C` [valsartan], the angiogenic response post-stenting [2] was “markedly inhibits”, the mean neointimal thickness ([2]; vs placebo-treated animals) was “reduced” and the percent stent stenosis ([2]; vs placebo-treated animals) was “reduced”. For the same compound, the “inhibition of neointimal lesions” value [3] was “potent inhibition” and the “inhibition of Ang II induced angiogenic response in vivo” value [4] was “potent inhibition”.
